Data as given in PubChem BioAssay (NCI).
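All cell lines were grown in 96-well plates and treated with compound for 48 hours. GI50 marks 50% less growth. Definition used: TGI = concentration required for complete inhibition of growth.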

Columns and labels:
Test in all cases: NCI tumour cell line growth inhibition, 48 h
SNB-75 CNS = system: SNB-75 CNS
786-0 renal = system: 786-0 renal
SK-OV-3 ovarian = system: SK-OV-3 ovarian
T-47D breast = system: T-47D breast
EKVX NSCLC = system: EKVX NSCLC
MALME-3M melanoma = system: MALME-3M melanoma
HS 578T breast = system: HS 578T breast
NCI-H460 lung = system: NCI-H460 lung
SK-MEL-5 melanoma = system: SK-MEL-5 melanoma
HT29 colon = system: HT29 colon

Structure (SMILES)	GI50 (SNB-75 CNS)	TGI (SNB-75 CNS)	GI50 (786-0 renal)	TGI (786-0 renal)	GI50 (SK-OV-3 ovarian)	TGI (SK-OV-3 ovarian)	GI50 (T-47D breast)	TGI (T-47D breast)	GI50 (EKVX NSCLC)	TGI (EKVX NSCLC)	GI50 (MALME-3M melanoma)	TGI (MALME-3M melanoma)	GI50 (HS 578T breast)	TGI (HS 578T breast)	GI50 (NCI-H460 lung)	TGI (NCI-H460 lung)	GI50 (SK-MEL-5 melanoma)	TGI (SK-MEL-5 melanoma)	GI50 (HT29 colon)	TGI (HT29 colon)
COc1cc(NC(C)CCCN)c2nccc(C)c2c1OC (stereo not drawn)	14100 nM	29.4 µM	20300 nM	55.7 µM	18.6 µM	57.1 µM	4040 nM	24.1 µM	18 µM	33.8 µM	2840 nM	9.84 µM	8500 nM	35.4 µM	14100 nM	29.5 µM	3.97 µM	15.7 µM	4.72 µM	20.9 µM
CCN(CC)CCOc1ccc(/C(=C(\C)c2ccc(F)c(OC)c2)c2ccc(Cl)cc2)cc1	2020 nM	4.84 µM	2700 nM	5.11 µM	2.97 µM	5.73 µM	2410 nM	5.86 µM	2.46 µM	5.39 µM	2090 nM	4.7 µM	2420 nM	5.84 µM	2070 nM	4.24 µM	2.81 µM	5.21 µM	0.582 µM	2.87 µM
CCOC(=O)N1CCN(C(=O)c2ccc(C(F)(F)F)nc2Nc2cc(Cl)ccc2C)CC1	1410 nM	24.1 µM	41100 nM	> 100 µM	> 100 µM	> 100 µM	> 100000 nM	> 100 µM	23.2 µM	> 100 µM	12000 nM	41 µM	23900 nM	91.2 µM	16200 nM	33.6 µM	10.1 µM	23.2 µM	13.2 µM	34.8 µM
COc1cc2c(cc1OC)C13CCN4CC5=CCOC6CC(=O)N2C1C6C5CC43O (stereo not drawn)	–	> 100 µM	–	> 100 µM	–	> 100 µM	–	> 100 µM	–	> 100 µM	–	> 100 µM	–	> 100 µM	–	> 100 µM	–	> 100 µM	–	> 100 µM
Cc1cc(NC(=O)c2ccc(C)c(Nc3nccc(-c4cccnc4)n3)c2)cc(-n2cnc(C)c2)c1	1100 nM	2.81 µM	1560 nM	6.12 µM	1.73 µM	4.93 µM	1340 nM	3.77 µM	4.27 µM	21.4 µM	2390 nM	10.6 µM	84.7 nM	14.4 µM	79.4 nM	4.16 µM	5.04 µM	12.7 µM	1.73 µM	5.33 µM
NC(N)=N/N=C/c1cc(Cl)cc(Cl)c1O	–	89.1 µM	–	> 100 µM	–	> 100 µM	–	> 100 µM	–	> 100 µM	–	> 100 µM	–	> 100 µM	–	> 100 µM	–	> 100 µM	–	> 100 µM
Cc1sc2nc(NCCc3c[nH]c4ccc(Cl)cc34)[nH]c(=O)c2c1C	1650 nM	5.21 µM	2390 nM	6.23 µM	3.22 µM	14.5 µM	2980 nM	12.7 µM	2.76 µM	–	2380 nM	7.45 µM	1860 nM	6.25 µM	2540 nM	7.95 µM	1.98 µM	3.88 µM	3.06 µM	10.8 µM
N#CC1Nc2ccccc2[C@@H](O)C1O (stereo partly drawn)	–	> 100 µM	–	> 100 µM	–	> 100 µM	–	> 100 µM	–	> 100 µM	–	> 100 µM	–	> 100 µM	–	> 100 µM	–	> 100 µM	–	> 100 µM
COC(=O)[C@@H](NC(=O)[C@@H](OC)[C@@H]1Cc2cc3cc(OC4CC(OC5CC(O)C(O)C(C)O5)C(O)C(C)O4)c(C)c(O)c3c(O)c2C(=O)[C@H]1OC1CC(OC2CC(OC3CC(C)(O)C(O)C(C)O3)C(O)C(C)O2)C(O)C(C)O1)C(C)C (stereo partly drawn)	84.9 nM	1.46 µM	175 nM	5.98 µM	0.271 µM	> 32.5 µM	202 nM	> 32.5 µM	0.162 µM	> 32.5 µM	76.3 nM	1.43 µM	114 nM	1.39 µM	111 nM	5.7 µM	0.0727 µM	0.408 µM	0.129 µM	> 32.5 µM
OCCCCC#Cc1ccccc1C#Cc1cccc(O)c1	16100 nM	38.1 µM	13800 nM	29.2 µM	19.1 µM	43.3 µM	14400 nM	34.7 µM	23.5 µM	57 µM	18900 nM	40.8 µM	31200 nM	94.7 µM	18500 nM	40.7 µM	17.8 µM	32.7 µM	17.1 µM	31.8 µM
O=C(O)Cc1c(O)ccc2ccccc12	–	> 100 µM	–	> 100 µM	–	> 100 µM	–	> 100 µM	–	> 100 µM	–	> 100 µM	–	> 100 µM	–	> 100 µM	–	> 100 µM	–	> 100 µM
O=C(Nc1ccc(Cl)cc1F)c1cc(Br)ccc1O	468 nM	2.87 µM	2580 nM	7.43 µM	0.763 µM	–	560 nM	4.46 µM	1.46 µM	> 26.1 µM	595 nM	2.65 µM	521 nM	4.08 µM	653 nM	18.3 µM	0.3 µM	1.07 µM	3.67 µM	> 100 µM
Nc1ccncc1/C=C1/C(=O)Nc2ccccc21	18500 nM	63.2 µM	34800 nM	> 100 µM	46.7 µM	> 100 µM	> 100000 nM	> 100 µM	47.2 µM	> 100 µM	20600 nM	80.9 µM	41200 nM	> 100 µM	28400 nM	> 100 µM	28 µM	> 100 µM	27.8 µM	> 100 µM
